These results are taken from patent US9796700B2 (Celgene CAR LLC, priority 2013, dated 2017).

One experiment addresses Erk1 (Homo sapiens (Human), UniProt P27361). The experiment is described as follows: Protein Mass Modification Assay (intact protein MALDI). It is filed as binding. In outline:
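Human Erk1 was incubated 60 min at room temperature with a 10-fold molar excess of compound, then analysed as intact protein by MALDI with sinapinic acid matrix. The centroid mass shift versus untreated protein was divided by compound molecular weight to give percent modified protein.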

The target of another experiment is MEK1 activated ERK1 (Homo sapiens (Human), UniProt P27361). The experiment is described as follows: Omnia continuous-read kinase assay for potency against MEK1 activated ERK1. In kind it is biochemical. The conditions noted are these: MEK1 activated ERK1, WT, ATP at KM. An excerpt: Omnia Assay Protocol for Potency Assessment Against MEK1 Activated ERK1:
The protocol below describes continuous-read kinase assays to measure potency of compounds against activated ERK1 enzyme. The mechanics of the assay platform are best described by the vendor (Invitrogen, Carlsbad, Calif.) on their website at the following URL: invitrogen.com/site/us/en/home.html.
Briefly, a 1.25× stock of ERK1 enzyme (14-439-K) from Millipore (Billerica, Mass.), 5×ATP (AS001A) and ST17-Sox conjugated peptide substrate (KNZ1171C) were prepared in 1× kinase reaction buffer consisting of 20 mM Tris, pH 7.5, 5 mM MgCl2, 1 mM EGTA, 5 mM β-glycerophosphate, 5% glycerol (10× stock, KB002A) and 0.2 mM DTT. 10 μL of ATP/ST17-sox peptide substrate mix was combined with 0.5 μL volume of 100% DMSO and serially diluted compounds were prepared in 100% DMSO in a Corning (#3574) 384-well, white, non-binding surface microtiter plate (Corning, N.Y.). Kinase reactions were started with the addition of 40 μL of ERK1 solution and monitored every 71 seconds for 30-240 minutes at λex360/λem485 in a Synergy plate reader from BioTek (Winooski, Vt.). At the conclusion of each assay, progress curves from each well were examined for linear reaction kinetics and fit statistics (R^2, 95% confidence interval, absolute sum of squares). Initial velocity (0 minutes to ˜30+ minutes) from each reaction was determined from the slope of a plot of relative fluorescence units vs time (minutes or seconds) and then plotted against inhibitor concentration to estimate ^AppIC50 from log [Inhibitor] vs Response, Variable Slope model in GraphPad Prism from GraphPad Software (San Diego, Calif.).
[Reagent] used in optimized protocol:
[ERK1]=4 nM, [ATP]=50 μM, [ST17-Sox]=10 μM (ATP ^appKM 48 μM)
The results of this assay show the degree of inhibition of ERK activity, which is a direct measurement of inhibition of ERK activity. Results from this assay are reported in Table A under the column “ERK1 Omnia WT ATP KM IC50 (nM).”

MEK1 activated ERK1, sequence (P27361 whole entry): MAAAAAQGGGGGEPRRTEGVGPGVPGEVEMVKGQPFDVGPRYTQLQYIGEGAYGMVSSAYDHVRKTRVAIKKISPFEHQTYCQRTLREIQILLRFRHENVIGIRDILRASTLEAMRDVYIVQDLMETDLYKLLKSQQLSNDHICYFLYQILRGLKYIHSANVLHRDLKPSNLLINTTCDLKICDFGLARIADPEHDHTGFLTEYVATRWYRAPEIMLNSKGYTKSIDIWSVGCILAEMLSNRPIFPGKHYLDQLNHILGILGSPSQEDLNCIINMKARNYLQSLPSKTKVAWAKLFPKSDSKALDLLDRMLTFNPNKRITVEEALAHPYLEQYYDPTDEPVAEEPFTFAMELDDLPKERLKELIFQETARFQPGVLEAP
Erk1, sequence (P27361 whole entry, looked up): as the sequence (P27361 whole entry) above

For the molecule `C=CC(=O)Nc1ccccc1Nc1nc(N[C@@H]2CCN(C(=O)CO)C2)ncc1C(F)(F)F` [Compound I-62, (R)—N-(2-((2-((1-(2-Hydroxyacetyl)pyrrolidin-3-yl)amino)-5-(trifluoromethyl)pyrimidin-4-yl)amino)phenyl)acrylamide], the “ERK1 Mass Mod (%)” value on Erk1 was “F (provided a mass modification of 31-69%)”. Also, the IC50 at MEK1 activated ERK1 is over 1000 nM.

In the case of `C=CC(=O)Nc1ccccc1Nc1nc(Nc2cc(OC)nc(OCCOC)c2)ncc1C(F)(F)F` [Compound I-283, N-(2-((2-((2-Methoxy-6-(2-methoxyethoxy)pyridin-4-yl)amino)-5-(trifluoromethyl)pyrimidin-4-yl)amino)phenyl)acrylamide], the “ERK1 Mass Mod (%)” value on Erk1 is on record as “E (provided a mass modification of ≧70%)”. In addition, the IC50 at MEK1 activated ERK1 was under 100 nM.

As for `C=CC(=O)Nc1ccccc1Nc1nc(Nc2ccc(N3CCC[C@@H]3CO)cc2C#N)ncc1Cl` [Compound I-171, (R)—N-(2-((5-chloro-2-((2-cyano-4-(2-(hydroxymethyl)pyrrolidin-1-yl)phenyl)amino)pyrimidin-4-yl)amino)phenyl)acrylamide], on Erk1, the “ERK1 Mass Mod (%)” value is recorded as “E (provided a mass modification of ≧70%)”. Further, at MEK1 activated ERK1, the IC50 is over 1000 nM.

With `C=C(C)S(=O)(=O)Nc1cc(C)ccc1Nc1nc(NC2CCC(=O)CC2)ncc1C(F)(F)F` [Compound I-53, N-(5-Methyl-2-((2-((4-oxocyclohexyl)amino)-5-(trifluoromethyl)pyrimidin-4-yl)amino)phenyl)prop-1-ene-2-sulfonamide], at Erk1, the “ERK1 Mass Mod (%)” value was “G (proived a mass modification ≦30%)”. The IC50 on MEK1 activated ERK1 was under 100 nM.

Regarding `C=CC(=O)Nc1cc(C)ccc1Nc1nc(Nc2cc(Cl)nc(OC)c2)ncc1Cl` [Compound I-244, N-(2-((5-chloro-2-((2-chloro-6-methoxypyridin-4-yl)amino)pyrimidin-4-yl)amino)-5-methylphenyl)acrylamide], the “ERK1 Mass Mod (%)” value on Erk1 is given as “E (provided a mass modification of ≧70%)”. At MEK1 activated ERK1, the IC50 was over 1000 nM.

Consider `C=CC(=O)Nc1cc(OC)ccc1Nc1nc(Nc2ccc(N3CCC[C@H]3CO)cc2OC)ncc1Cl` [Compound I-159, (S)—N-(2-((5-chloro-2-((4-(2-(hydroxymethyl)pyrrolidin-1-yl)-2-methoxyphenyl)amino)pyrimidin-4-yl)amino)-5-methoxyphenyl)acrylamide], for which the “ERK1 Mass Mod (%)” value at Erk1 is “F (provided a mass modification of 31-69%)”. Further, the IC50 on MEK1 activated ERK1 was over 1000 nM.

As for `C=CC(=O)Nc1ccccc1Nc1nc(Nc2cc(C(N)=O)ccc2CC)ncc1Cl` [Compound I-193, 3-((4-((2-acrylamidophenyl)amino)-5-chloropyrimidin-2-yl)amino)-4-ethylbenzamide], the “ERK1 Mass Mod (%)” value on Erk1 is “E (provided a mass modification of ≧70%)”. Besides, the IC50 at MEK1 activated ERK1 is under 100 nM.

In the case of `CN(C)CCC(=O)Nc1ccccc1Nc1nc(N[C@H]2CCCN(C(=O)CO)C2)ncc1C(F)(F)F` [Compound I-276, (S)-3-(dimethylamino)-N-(2-((2-((1-(2-hydroxyacetyl)piperidin-3-yl)amino)-5-(trifluoromethyl)pyrimidin-4-yl)amino)phenyl)propanamide], the “ERK1 Mass Mod (%)” value at Erk1 is reported as “G (proived a mass modification ≦30%)”. Further, the IC50 at MEK1 activated ERK1 was over 1000 nM.

As for `C=CC(=O)Nc1cc(F)ccc1Nc1nc(Nc2ccc(F)cc2C#N)ncc1Cl` [Compound I-221, N-(2-((5-chloro-2-((2-cyano-4-fluorophenyl)amino)pyrimidin-4-yl)amino)-5-fluorophenyl)acrylamide], at Erk1, the “ERK1 Mass Mod (%)” value is reported as “E (provided a mass modification of ≧70%)”. Further, the IC50 on MEK1 activated ERK1 is under 100 nM.

Turning to `C=CC(=O)Nc1cc(C)ccc1Nc1nc(Nc2cnnc(OC)c2)ncc1C(F)(F)F` [Compound I-335, N-(2-((2-((6-methoxypyridazin-4-yl)amino)-5-(trifluoromethyl)pyrimidin-4-yl)amino)-5-methylphenyl)acrylamide], at Erk1, the “ERK1 Mass Mod (%)” value was “E (provided a mass modification of ≧70%)”. Also, on MEK1 activated ERK1, the IC50 was over 1000 nM.

As for `C=CC(=O)Nc1ccccc1Nc1nc(N[C@H]2CCCN(C(=O)CC)C2)ncc1Cl` [Compound I-131, (S)—N-(2-((5-chloro-2-((1-propionylpiperidin-3-yl)amino)pyrimidin-4-yl)amino)phenyl)acrylamide], on Erk1, the “ERK1 Mass Mod (%)” value is “E (provided a mass modification of ≧70%)”. Also, on MEK1 activated ERK1, the IC50 was under 100 nM.

In the case of `C=CC(=O)Nc1cc(OC)ccc1Oc1nc(Nc2ccc(N3CCC[C@H]3C(N)=O)cc2OC)ncc1C(N)=O` [Compound I-265, (S)-4-(2-acrylamido-4-methoxyphenoxy)-2-((4-(2-carbamoylpyrrolidin-1-yl)-2-methoxyphenyl)amino)pyrimidine-5-carboxamide], the “ERK1 Mass Mod (%)” value at Erk1 was “F (provided a mass modification of 31-69%)”. Moreover, the IC50 on MEK1 activated ERK1 was over 1000 nM.

Consider `CCOCCC(=O)Nc1ccccc1Nc1nc(Nc2cc(C(N)=O)ccc2C)ncc1Cl` [Compound I-130], for which the “ERK1 Mass Mod (%)” value on Erk1 is on record as “G (proived a mass modification ≦30%)”. Also, the IC50 on MEK1 activated ERK1 is over 1000 nM.

In the case of `C=CC(=O)Nc1ccccc1Oc1nc(Nc2ccc(N3CCN(C(C)=O)CC3)cc2OC)ncc1F` [Compound I-260, N-(2-((2-((4-(4-acetylpiperazin-1-yl)-2-methoxyphenyl)amino)-5-fluoropyrimidin-4-yl)oxy)phenyl)acrylamide], the “ERK1 Mass Mod (%)” value on Erk1 is “G (proived a mass modification ≦30%)”. Further, the IC50 at MEK1 activated ERK1 was over 1000 nM.

For `C=CC(=O)Nc1ccccc1Nc1nc(N[C@H]2CCCN(C(C)=O)C2)ncc1C(F)(F)F` [Compound I-10, (S)—N-(2-(2-(1-acetylpiperidin-3-ylamino)-5-(trifluoromethyl)pyrimidin-4-ylamino)phenyl)acrylamide], the “ERK1 Mass Mod (%)” value at Erk1 is recorded as “E (provided a mass modification of ≧70%)”. In addition, on MEK1 activated ERK1, the IC50 is under 100 nM.

On to `C=CC(=O)Nc1ccccc1Nc1nc(Nc2cc(OC)nc(N3CCN(S(C)(=O)=O)CC3)c2)ncc1C(F)(F)F` [Compound I-290, N-(2-((2-((2-Methoxy-6-(4-(methylsulfonyl)piperazin-1-yl)pyridin-4-yl)amino)-5-(trifluoromethyl)pyrimidin-4-yl)amino)phenyl)acrylamide], for which the “ERK1 Mass Mod (%)” value on Erk1 is “E (provided a mass modification of ≧70%)”. In addition, the IC50 on MEK1 activated ERK1 is over 1000 nM.

As to `C=CC(=O)Nc1cc(OC)ccc1Nc1nc(Nc2cc(OC)nc(N3CCN(C)CC3)c2)ncc1C(F)(F)F` [Compound I-334, N-(5-methoxy-2-((2-((2-methoxy-6-(4-methylpiperazin-1-yl)pyridin-4-yl)amino)-5-(trifluoromethyl)pyrimidin-4-yl)amino)phenyl)acrylamide], on Erk1, the “ERK1 Mass Mod (%)” value was “E (provided a mass modification of ≧70%)”. On MEK1 activated ERK1, the IC50 was under 100 nM.

Regarding `CC(C)=CC(=O)c1ccccc1Nc1nc(Nc2cc(C(N)=O)ccc2C)ncc1Cl` [Compound I-216, 3-((5-chloro-4-((2-(3-methylbut-2-enoyl)phenyl)amino)pyrimidin-2-yl)amino)-4-methylbenzamide], the “ERK1 Mass Mod (%)” value at Erk1 is reported as “G (proived a mass modification ≦30%)”. For the same molecule, the IC50 on MEK1 activated ERK1 is over 1000 nM.

As for `CC(C)=CC(=O)c1ccccc1Oc1nc(Nc2cc(C(N)=O)ccc2C)ncc1C(N)=O` [Compound I-271, 2-((5-carbamoyl-2-methylphenyl)amino)-4-(2-(3-methylbut-2-enoyl)phenoxy)pyrimidine-5-carboxamide], at Erk1, the “ERK1 Mass Mod (%)” value is “G (proived a mass modification ≦30%)”. For the same molecule, the IC50 on MEK1 activated ERK1 is over 1000 nM.

For orientation: IC50 means the concentration at which inhibition is half-maximal.
